Source: PubChem BioAssay AID1963833 (Molecular Pharmacology Branch, DTP, NCI, 2024)

System: 883617-216-R-J1-PDC complex spheroid viability
Experiment: Anticancer human tumor 883617-216-R-J1-PDC patient-derived bladder carcinoma cell line growth inhibition [POLQ]
Conditions: for IC50: curve of first compound; for viability, T/C: stronger effect = lower value
In short: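 Patient-derived tumour cells were co-cultured with HUVEC and mesenchymal stem cells as multicellular spheroids at 37 °C. They were treated with POLQ inhibitors (novobiocin, ART-558, RP6685) alone or combined with other agents. Top concentrations were at or near clinical Cmax (otherwise 10 microM; SN-38 at 1 microM), decreasing in half-log steps.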
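Also: spheroids exposed to compounds for seven days before readout.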
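For viability, T/C in this document: 100% = DMSO vehicle control viability.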

Cn1ncnc1[C@H]1c2n[nH]c(=O)c3cc(F)cc(c23)N[C@@H]1c1ccc(F)cc1 + Cc1cccc(N(C)C(=O)C2C(O)CCN2c2nc(C)cc(C(F)(F)F)c2C#N)c1
IC50 (second compound 0.0316 µM): > 100 nM
IC50 (second compound 0.1 µM): > 100 nM
IC50 (second compound 0.316 µM): > 100 nM
IC50 (second compound 1 µM): > 100 nM
IC50 (second compound 3.16 µM): > 100 nM
IC50 (second compound 10 µM): > 100 nM
viability, T/C (second compound 0.0316 µM, first compound 0.000316 µM): 99.2%
viability, T/C (second compound 0.0316 µM, first compound 0.001 µM): 101%
viability, T/C (second compound 0.0316 µM, first compound 0.00316 µM): 93.4%
viability, T/C (second compound 0.0316 µM, first compound 0.01 µM): 78%
viability, T/C (second compound 0.0316 µM, first compound 0.0316 µM): 74.4%
viability, T/C (second compound 0.0316 µM, first compound 0.1 µM): 73.7%
viability, T/C (second compound 0.1 µM, first compound 0.000316 µM): 96.3%
viability, T/C (second compound 0.1 µM, first compound 0.001 µM): 96.3%
viability, T/C (second compound 0.1 µM, first compound 0.00316 µM): 96.9%
viability, T/C (second compound 0.1 µM, first compound 0.01 µM): 86.6%
viability, T/C (second compound 0.1 µM, first compound 0.0316 µM): 82.9%
viability, T/C (second compound 0.1 µM, first compound 0.1 µM): 76.7%
viability, T/C (second compound 0.316 µM, first compound 0.000316 µM): 95.7%
viability, T/C (second compound 0.316 µM, first compound 0.001 µM): 98.3%
viability, T/C (second compound 0.316 µM, first compound 0.00316 µM): 94.2%
viability, T/C (second compound 0.316 µM, first compound 0.01 µM): 81.1%
viability, T/C (second compound 0.316 µM, first compound 0.0316 µM): 72.8%
viability, T/C (second compound 0.316 µM, first compound 0.1 µM): 64.2%
viability, T/C (second compound 1 µM, first compound 0.000316 µM): 98.1%
viability, T/C (second compound 1 µM, first compound 0.001 µM): 98.6%
viability, T/C (second compound 1 µM, first compound 0.00316 µM): 88.6%
viability, T/C (second compound 1 µM, first compound 0.01 µM): 84.8%
viability, T/C (second compound 1 µM, first compound 0.0316 µM): 83%
viability, T/C (second compound 1 µM, first compound 0.1 µM): 74%
viability, T/C (second compound 3.16 µM, first compound 0.000316 µM): 109%
viability, T/C (second compound 3.16 µM, first compound 0.001 µM): 96.8%
viability, T/C (second compound 3.16 µM, first compound 0.00316 µM): 94.8%
viability, T/C (second compound 3.16 µM, first compound 0.01 µM): 84.5%
viability, T/C (second compound 3.16 µM, first compound 0.0316 µM): 81.8%
viability, T/C (second compound 3.16 µM, first compound 0.1 µM): 69.2%
viability, T/C (second compound 10 µM, first compound 0.000316 µM): 103%
viability, T/C (second compound 10 µM, first compound 0.001 µM): 100%
viability, T/C (second compound 10 µM, first compound 0.00316 µM): 98.4%
viability, T/C (second compound 10 µM, first compound 0.01 µM): 90.8%
viability, T/C (second compound 10 µM, first compound 0.0316 µM): 91.3%
viability, T/C (second compound 10 µM, first compound 0.1 µM): 80.6%
